# According to ChEMBL document CHEMBL4321812, “Structure-based rational design of staurosporine-based fluorescent probe with broad-ranging kinase affinity for kinase panel application” (Bioorg Med Chem Lett, 2019):
# pKd: −log10 of the molar value.
# Assays:
# [1] = biological target: Tyrosine-protein kinase JAK3 (Homo sapiens, UniProt P52333); assay: Binding affinity to recombinant full-length N-terminal His-FLAG-GST-tagged JAK3 (unknown origin) (795 to 1124 residues) expressed in baculovirus infected Sf9 insect cells incubated for 1 hr by TR-FRET assay
# [2] = biological target: Ribosomal protein S6 kinase alpha-2 (Homo sapiens, UniProt Q15349); assay: Binding affinity to recombinant human full length N-terminal GST-tagged RPS6KA2 expressed in baculovirus expression system using S6K peptide as substrate incubated for 1 hr by TR-FRET assay
# [3] = biological target: Dual specificity tyrosine-phosphorylation-regulated kinase 1B (Homo sapiens, UniProt Q9Y463); assay: Binding affinity to recombinant full-length N-terminal His-FLAG-tagged DYRK1B (unknown origin) expressed in baculovirus infected Sf9 insect cells incubated for 1 hr by TR-FRET assay
# [4] = biological target: Misshapen-like kinase 1 (Homo sapiens, UniProt Q8N4C8); assay: Binding affinity to recombinant full-length N-terminal His-FLAG-GST-tagged MINK1 (unknown origin) (1 to 314 residues) expressed in baculovirus infected Sf9 insect cells incubated for 1 hr by TR-FRET assay
# [5] = biological target: Cyclin-dependent kinase 5/CDK5 activator 1 (Homo sapiens, UniProt Q00535); assay: Binding affinity to recombinant human full-length N-terminal GST-tagged CDK5 (1 to 292 residues)/N-terminal His6-tagged p25 (99 to 307 residues) expressed in baculovirus expression system using modified histone H1 as substrate incubated for 1 hr by TR-FRET assay
# [6] = biological target: Fibroblast growth factor receptor 1 (Homo sapiens, UniProt P11362); assay: Binding affinity to recombinant N-terminal His-FLAG-GST-tagged FGFR1 (unknown origin) (396 to 820 residues) expressed in baculovirus infected Sf9 insect cells incubated for 1 hr by TR-FRET assay
# [7] = biological target: Aurora kinase A (Homo sapiens, UniProt O14965); assay: Binding affinity to recombinant full-length N-terminal His-FLAG-GST-tagged AURKA (unknown origin) expressed in baculovirus infected Sf9 insect cells incubated for 1 hr by TR-FRET assay
# [8] = biological target: Tyrosine-protein kinase Lyn (Homo sapiens, UniProt P07948); assay: Binding affinity to recombinant full-length N-terminal His-FLAG-GST-tagged LYN (unknown origin) expressed in baculovirus infected Sf9 insect cells incubated for 1 hr by TR-FRET assay
# [9] = biological target: Serine/threonine-protein kinase PAK 6 (Homo sapiens, UniProt Q9NQU5); assay: Binding affinity to recombinant human full-length N-terminal GST-tagged PAK6 expressed in baculovirus expression system using SGKtide as substrate incubated for 1 hr by TR-FRET assay
# [10] = biological target: Calcium/calmodulin-dependent protein kinase kinase 1 (Homo sapiens, UniProt Q8N5S9); assay: Binding affinity to recombinant full-length N-terminal His-FLAG-GST-tagged CAMKK1 (unknown origin) expressed in baculovirus infected Sf9 insect cells incubated for 1 hr in presence of calmodulin by TR-FRET assay
# [11] = biological target: Serine/threonine-protein kinase TNNI3K (Homo sapiens, UniProt Q59H18); assay: Binding affinity to recombinant N-terminal His-FLAG-GST-tagged TNNI3K (unknown origin) (1 to 727 residues) expressed in baculovirus infected Sf9 insect cells incubated for 1 hr by TR-FRET assay
# [12] = biological target: Tyrosine-protein kinase ITK/TSK (Homo sapiens, UniProt Q08881); assay: Binding affinity to recombinant human full-length N-terminal GST-tagged ITK expressed in baculovirus expression system using srctide as substrate incubated for 1 hr by TR-FRET assay
# Tyrosine-protein kinase ITK/TSK, sequence (Q08881 whole entry, the tested form may be a part): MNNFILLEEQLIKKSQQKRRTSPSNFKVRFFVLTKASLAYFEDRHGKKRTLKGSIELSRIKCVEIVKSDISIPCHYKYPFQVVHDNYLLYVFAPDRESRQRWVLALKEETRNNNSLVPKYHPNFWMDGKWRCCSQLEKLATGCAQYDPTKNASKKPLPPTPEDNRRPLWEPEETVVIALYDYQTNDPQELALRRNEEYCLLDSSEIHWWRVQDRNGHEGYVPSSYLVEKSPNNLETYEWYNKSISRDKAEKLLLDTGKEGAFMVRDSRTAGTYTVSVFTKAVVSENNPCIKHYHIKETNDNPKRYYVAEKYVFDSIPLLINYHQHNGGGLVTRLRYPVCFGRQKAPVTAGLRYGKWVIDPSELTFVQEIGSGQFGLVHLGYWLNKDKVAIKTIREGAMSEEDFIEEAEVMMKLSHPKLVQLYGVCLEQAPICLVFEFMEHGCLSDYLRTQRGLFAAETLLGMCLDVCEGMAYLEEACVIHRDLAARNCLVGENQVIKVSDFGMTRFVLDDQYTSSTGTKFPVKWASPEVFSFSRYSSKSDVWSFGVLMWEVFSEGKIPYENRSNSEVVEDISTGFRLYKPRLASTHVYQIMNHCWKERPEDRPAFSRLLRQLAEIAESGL
# [13] = biological target: Serine/threonine-protein kinase ULK2 (Homo sapiens, UniProt Q8IYT8); assay: Binding affinity to recombinant N-terminal His-FLAG-GST-tagged ULK2 (unknown origin) (1 to 478 residues) expressed in baculovirus infected Sf9 insect cells incubated for 1 hr by TR-FRET assay
# Serine/threonine-protein kinase ULK2, sequence (Q8IYT8 whole entry, the tested form may be a part): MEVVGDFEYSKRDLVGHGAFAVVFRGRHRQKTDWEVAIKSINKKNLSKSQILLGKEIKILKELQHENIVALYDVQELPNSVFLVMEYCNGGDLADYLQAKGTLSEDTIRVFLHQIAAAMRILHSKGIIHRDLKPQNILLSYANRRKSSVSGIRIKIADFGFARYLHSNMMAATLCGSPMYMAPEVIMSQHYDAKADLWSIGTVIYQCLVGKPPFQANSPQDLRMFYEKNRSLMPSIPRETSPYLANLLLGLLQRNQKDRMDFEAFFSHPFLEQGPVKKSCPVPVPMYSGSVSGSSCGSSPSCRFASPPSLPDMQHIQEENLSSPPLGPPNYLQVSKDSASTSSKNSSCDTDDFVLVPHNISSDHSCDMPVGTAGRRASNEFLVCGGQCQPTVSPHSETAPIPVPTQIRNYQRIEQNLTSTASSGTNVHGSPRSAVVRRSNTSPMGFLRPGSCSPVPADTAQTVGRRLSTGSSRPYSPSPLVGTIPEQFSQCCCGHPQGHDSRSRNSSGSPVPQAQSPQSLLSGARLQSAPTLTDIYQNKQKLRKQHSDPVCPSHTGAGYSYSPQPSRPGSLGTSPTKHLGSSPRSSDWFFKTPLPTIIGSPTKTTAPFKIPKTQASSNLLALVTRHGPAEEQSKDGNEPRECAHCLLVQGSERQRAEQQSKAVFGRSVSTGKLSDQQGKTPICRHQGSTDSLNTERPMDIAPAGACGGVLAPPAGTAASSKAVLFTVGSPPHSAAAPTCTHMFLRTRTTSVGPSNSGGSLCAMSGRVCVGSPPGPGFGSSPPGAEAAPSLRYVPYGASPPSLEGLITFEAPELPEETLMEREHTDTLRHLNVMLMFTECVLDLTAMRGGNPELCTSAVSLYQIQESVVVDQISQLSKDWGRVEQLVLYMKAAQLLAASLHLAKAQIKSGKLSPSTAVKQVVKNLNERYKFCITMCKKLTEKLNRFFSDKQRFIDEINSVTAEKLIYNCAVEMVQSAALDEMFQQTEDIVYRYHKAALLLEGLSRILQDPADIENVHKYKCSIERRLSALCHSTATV
# [14] = biological target: Serine/threonine-protein kinase PLK4 (Homo sapiens, UniProt O00444); assay: Binding affinity to recombinant full-length N-terminal His-FLAG-GST-tagged PLK4 (unknown origin) (1 to 836 residues) expressed in baculovirus infected Sf9 insect cells incubated for 1 hr by TR-FRET assay
# Serine/threonine-protein kinase PLK4, sequence (O00444 whole entry, the tested form may be a part): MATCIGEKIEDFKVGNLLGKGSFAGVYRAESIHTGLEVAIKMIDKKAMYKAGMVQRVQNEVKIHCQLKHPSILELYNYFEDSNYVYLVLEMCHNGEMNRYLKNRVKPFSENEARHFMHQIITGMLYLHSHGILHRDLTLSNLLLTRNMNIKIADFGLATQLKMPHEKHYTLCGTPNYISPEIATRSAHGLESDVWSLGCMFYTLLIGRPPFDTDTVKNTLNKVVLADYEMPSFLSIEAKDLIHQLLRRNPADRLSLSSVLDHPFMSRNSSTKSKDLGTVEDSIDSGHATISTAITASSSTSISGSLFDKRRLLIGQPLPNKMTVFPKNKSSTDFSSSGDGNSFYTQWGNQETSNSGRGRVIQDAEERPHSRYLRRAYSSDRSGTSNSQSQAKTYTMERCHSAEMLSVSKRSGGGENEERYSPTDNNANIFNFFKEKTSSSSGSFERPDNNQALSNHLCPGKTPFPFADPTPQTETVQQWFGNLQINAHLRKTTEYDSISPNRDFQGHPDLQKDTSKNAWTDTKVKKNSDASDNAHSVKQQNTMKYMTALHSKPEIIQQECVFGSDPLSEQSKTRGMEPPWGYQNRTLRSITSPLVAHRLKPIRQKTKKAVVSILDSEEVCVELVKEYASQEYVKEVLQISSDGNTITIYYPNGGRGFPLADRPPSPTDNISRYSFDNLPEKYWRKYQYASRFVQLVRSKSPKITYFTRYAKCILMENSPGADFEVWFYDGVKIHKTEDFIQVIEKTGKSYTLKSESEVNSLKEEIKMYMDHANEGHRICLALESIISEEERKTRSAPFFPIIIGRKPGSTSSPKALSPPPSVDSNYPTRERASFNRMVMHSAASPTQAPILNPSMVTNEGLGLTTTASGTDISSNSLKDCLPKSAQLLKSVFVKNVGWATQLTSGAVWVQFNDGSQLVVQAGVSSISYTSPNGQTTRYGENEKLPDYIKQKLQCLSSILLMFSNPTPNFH
# [15] = biological target: Tyrosine-protein kinase Fer (Homo sapiens, UniProt P16591); assay: Binding affinity to recombinant full-length N-terminal His-FLAG-GST-tagged FER (unknown origin) expressed in baculovirus infected Sf9 insect cells incubated for 1 hr by TR-FRET assay
# [16] = biological target: CDK9/cyclin T1 (Homo sapiens, UniProt P50750); assay: Binding affinity to recombinant human full length N-terminal GST-tagged CDK9 co-expressed with full length N-terminal His-tagged CyclinT1 expressed in baculovirus expression system using CDK9 substrate incubated for 1 hr by TR-FRET assay
# CDK9/cyclin T1, sequence (O60563 whole entry): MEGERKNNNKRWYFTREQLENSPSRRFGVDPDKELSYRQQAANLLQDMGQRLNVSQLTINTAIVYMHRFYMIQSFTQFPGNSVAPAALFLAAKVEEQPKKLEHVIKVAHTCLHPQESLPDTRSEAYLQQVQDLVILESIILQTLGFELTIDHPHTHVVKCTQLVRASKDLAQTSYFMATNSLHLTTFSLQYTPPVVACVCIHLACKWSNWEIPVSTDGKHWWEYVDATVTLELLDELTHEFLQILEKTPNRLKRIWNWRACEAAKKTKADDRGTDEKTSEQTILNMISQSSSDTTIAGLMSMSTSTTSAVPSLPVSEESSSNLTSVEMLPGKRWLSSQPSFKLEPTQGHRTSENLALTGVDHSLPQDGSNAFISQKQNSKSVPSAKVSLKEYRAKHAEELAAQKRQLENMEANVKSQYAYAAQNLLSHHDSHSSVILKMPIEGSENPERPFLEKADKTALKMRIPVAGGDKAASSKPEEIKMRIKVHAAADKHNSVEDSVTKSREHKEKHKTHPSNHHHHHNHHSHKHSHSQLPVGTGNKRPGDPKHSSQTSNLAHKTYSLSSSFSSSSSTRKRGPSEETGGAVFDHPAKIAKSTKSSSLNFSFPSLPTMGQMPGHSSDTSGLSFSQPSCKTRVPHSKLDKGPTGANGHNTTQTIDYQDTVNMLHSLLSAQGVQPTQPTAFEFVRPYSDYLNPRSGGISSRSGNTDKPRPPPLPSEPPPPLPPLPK
# CDK9/cyclin T1, sequence (P50750 whole entry): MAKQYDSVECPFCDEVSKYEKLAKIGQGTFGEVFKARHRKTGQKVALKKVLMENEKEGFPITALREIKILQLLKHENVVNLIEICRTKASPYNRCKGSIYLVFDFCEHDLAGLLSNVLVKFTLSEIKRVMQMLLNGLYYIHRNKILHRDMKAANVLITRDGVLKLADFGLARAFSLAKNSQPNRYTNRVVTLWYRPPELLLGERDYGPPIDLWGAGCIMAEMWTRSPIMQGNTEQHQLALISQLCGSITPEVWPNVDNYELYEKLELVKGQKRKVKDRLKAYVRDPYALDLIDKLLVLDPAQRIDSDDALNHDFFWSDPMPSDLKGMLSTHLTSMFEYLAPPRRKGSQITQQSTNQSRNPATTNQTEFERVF
# [17] = biological target: Mitogen-activated protein kinase kinase kinase kinase 2 (Homo sapiens, UniProt Q12851); assay: Binding affinity to recombinant full-length N-terminal His-FLAG-GST-tagged MAP4K2 (unknown origin) expressed in baculovirus infected Sf9 insect cells incubated for 1 hr by TR-FRET assay
# [18] = biological target: Maternal embryonic leucine zipper kinase (Homo sapiens, UniProt Q14680); assay: Binding affinity to recombinant full-length N-terminal His-FLAG-GST-tagged MELK (unknown origin) (1 to 493 residues) expressed in baculovirus infected Sf9 insect cells incubated for 1 hr by TR-FRET assay
# Maternal embryonic leucine zipper kinase, sequence (Q14680 whole entry, the tested form may be a part): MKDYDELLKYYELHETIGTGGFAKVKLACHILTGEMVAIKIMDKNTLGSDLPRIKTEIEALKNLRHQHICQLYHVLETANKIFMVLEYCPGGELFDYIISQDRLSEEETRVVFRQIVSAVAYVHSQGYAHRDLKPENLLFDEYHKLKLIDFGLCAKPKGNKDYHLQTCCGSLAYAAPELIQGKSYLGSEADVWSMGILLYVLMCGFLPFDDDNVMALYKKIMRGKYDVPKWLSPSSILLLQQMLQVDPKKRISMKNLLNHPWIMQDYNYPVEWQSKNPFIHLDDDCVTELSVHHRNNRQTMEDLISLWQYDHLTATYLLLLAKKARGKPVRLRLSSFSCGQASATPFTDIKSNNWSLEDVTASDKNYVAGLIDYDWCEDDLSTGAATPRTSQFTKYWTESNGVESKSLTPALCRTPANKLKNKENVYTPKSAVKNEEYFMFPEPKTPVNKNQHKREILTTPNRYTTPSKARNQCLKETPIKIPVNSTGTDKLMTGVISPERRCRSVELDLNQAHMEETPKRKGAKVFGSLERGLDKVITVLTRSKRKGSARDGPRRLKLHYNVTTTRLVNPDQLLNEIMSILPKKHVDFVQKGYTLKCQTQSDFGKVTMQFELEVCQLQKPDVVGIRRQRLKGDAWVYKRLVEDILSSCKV
# [19] = biological target: Ephrin type-B receptor 2 (Homo sapiens, UniProt P29323); assay: Binding affinity to recombinant N-terminal His-FLAG-GST-tagged EPHB2 (unknown origin) (581 to 986 residues) expressed in baculovirus infected Sf9 insect cells incubated for 1 hr by TR-FRET assay
# [20] = biological target: Macrophage colony-stimulating factor 1 receptor (Homo sapiens, UniProt P07333); assay: Binding affinity to recombinant N-terminal His-FLAG-GST-tagged CSF1R (unknown origin) (538 to 972 residues) expressed in baculovirus infected Sf9 insect cells incubated for 1 hr by TR-FRET assay
# [21] = biological target: Tyrosine-protein kinase Fyn (Homo sapiens, UniProt P06241); assay: Binding affinity to recombinant full-length N-terminal His-FLAG-tagged FYN (unknown origin) expressed in baculovirus infected Sf9 insect cells incubated for 1 hr by TR-FRET assay
# Tyrosine-protein kinase Fyn, sequence (P06241 whole entry): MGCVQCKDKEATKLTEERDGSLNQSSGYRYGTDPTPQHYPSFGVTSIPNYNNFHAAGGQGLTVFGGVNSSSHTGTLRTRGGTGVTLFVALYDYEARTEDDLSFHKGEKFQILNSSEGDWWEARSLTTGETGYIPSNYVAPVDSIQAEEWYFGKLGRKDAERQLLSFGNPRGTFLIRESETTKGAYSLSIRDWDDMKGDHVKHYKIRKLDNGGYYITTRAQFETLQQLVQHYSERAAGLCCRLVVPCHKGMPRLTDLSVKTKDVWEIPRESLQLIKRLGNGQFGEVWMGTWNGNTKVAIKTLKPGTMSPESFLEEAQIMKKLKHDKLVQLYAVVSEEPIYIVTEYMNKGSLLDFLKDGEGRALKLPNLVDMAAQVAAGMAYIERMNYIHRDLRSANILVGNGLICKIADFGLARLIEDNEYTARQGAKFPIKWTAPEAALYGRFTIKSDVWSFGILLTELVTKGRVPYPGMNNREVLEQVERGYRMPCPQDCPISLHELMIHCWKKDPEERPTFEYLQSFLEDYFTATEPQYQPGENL
# [22] = biological target: cGMP-dependent protein kinase 1 (Homo sapiens, UniProt Q13976); assay: Binding affinity to recombinant full-length N-terminal His-FLAG-tagged PRKG1 (unknown origin) expressed in baculovirus infected Sf9 insect cells incubated for 1 hr by TR-FRET assay
# [23] = biological target: Mitogen-activated protein kinase kinase kinase 5 (Homo sapiens, UniProt Q99683); assay: Binding affinity to recombinant full-length N-terminal His-FLAG-GST-tagged MAP3K5 (unknown origin) (654 to 971 residues) expressed in baculovirus infected Sf9 insect cells incubated for 1 hr by TR-FRET assay
# [24] = biological target: Serine/threonine-protein kinase LATS2 (Homo sapiens, UniProt Q9NRM7); assay: Binding affinity to recombinant full-length N-terminal His-FLAG-GST-tagged LATS2 (unknown origin) (553 to 1088 residues) expressed in baculovirus infected Sf9 insect cells incubated for 1 hr by TR-FRET assay
SMILES,pKd [1],pKd [2],pKd [3],pKd [4],pKd [6],pKd [7],pKd [8],pKd [9],pKd [10],pKd [11],pKd [12],pKd [13],pKd [14],pKd [15],pKd [16],pKd [17],pKd [18],pKd [20],pKd [21],pKd [22],further results
CO[C@@H]1[C@H](NCCOCCOCCOCCNC(=O)CCC2=[N+]3C(=Cc4c(C)cc(C)n4[B-]3(F)F)C=C2)C[C@H]2O[C@]1(C)n1c3ccccc3c3c4c(c5c6ccccc6n2c5c31)C(=O)NC4,7.85,8.10,6.97,6.64,6.57,7.35,7.20,7.66,7.96,6.07,6.42,7.52,7.48,7.57,6.79,8.22,7.30,6.55,6.57,6.96,pKd [5]: 7.06; pKd [19]: 6.01; pKd [23]: 6.87; pKd [24]: 6.87
CO[C@@H]1[C@H](N(C)CCOCCOCCOCCNC(=O)CCC2=[N+]3C(=Cc4c(C)cc(C)n4[B-]3(F)F)C=C2)C[C@H]2O[C@]1(C)n1c3ccccc3c3c4c(c5c6ccccc6n2c5c31)C(=O)NC4,7.89,8.40,7.40,6.80,6.19,7.29,6.94,7.60,7.85,5.92,6.12,7.21,7.70,7.52,6.94,8.15,7.39,6.49,6.49,7.07,pKd [23]: 6.61; pKd [24]: 6.65
